Columns and labels:
Format in all cases: cell-based
[1] = tested on: Kaposi's sarcoma-associated herpesvirus (KSHV); test: Total RNA-sequencing of peptide-resistant KSHV-infected B-cells; conditions: continued peptide incubation, resistant cells vs parental cells
Protocol: FIG. 10. Peptide long-term treatment changes B-cell phenotype. RNA-seq was performed after generating peptide-drug resistant cell population.
The peptide sequence is based on KSHV transactivator protein sequence, and it is expected that the peptide will compete with viral transactivator protein for recruitment of cellular transactivation complex. We continued to incubate with peptide drug in KSHV-naturally infected B-cells and generated resistant cell line (RC). The resistant cells were then used to identify putative drug targets by comparing parental cells with total RNA-sequencing.

[2] = tested on: multiple cancer cell lines; test: MTT assay on multiple cancer cell lines; conditions: 0-96 μM; BCBL-1, Ramos, SU-DHL-10, HH, Jurkat, THP-1, U937, A549
Protocol: (§1) FIG. 6. Viral and cellular responses to K-Rta peptide; identification of VGN50. (a) Protein sequence alignment. FIG. 6(A) The effect of VGN50 on various cancer cell types. MTT assays were performed with the indicated cell lines treated with various VGN50 concentrations. The O.D. of mock-treated samples were set as 100%, and O.D. from detergent treated cells were set as 0%. Percentage viability+/−SD was calculated for each treatment (N=3 samples/treatment). FIG. 6(B) Viability assay with flow cytometry. Cell viability was measured in triplicate with live/dead staining and the cell killing effects on cancer cells was compared with normal peripheral blood mononuclear cells (PBMC) from three healthy donors. Results are presented as percentage viability+/−SD deviation (N=3 samples/group).
(§2) As shown in FIG. 6(a), multiple cancer cell lines were used for MTT assay to evaluate cancer cell killing efficacies of the MBK50 peptide at different concentrations (cell variability studies). […] Importantly, human peripheral blood mononuclear cells (PBMCs) from healthy donors were approximately 10-fold less sensitive to MBK-mediated killing compared to myeloid and lymphoid cancer cell lines (e.g., THP-1 and BCBL-1) as assessed by flow cytometry after live/dead staining (FIG. 6(b)). […]

[3] = tested on: NU-DUL1 cell; test: Cell growth inhibition with deletion peptides
Text: FIG. 7. Cell growth inhibition with deletion peptides identified key amino acid residue.
BCL2 mutations are frequently seen in B-cell lymphoma and the cell types are often refractory to chemotherapy due to anti-apoptotic phenotype. […] In addition, Essential Leucine residue is identified with the deletion peptides.

[4] = tested on: U937 cell line; test: MTT assay, U937; conditions: U973 monocytic leukemia cell line
Protocol: as §1, §2

[5] = tested on: B cells; test: B cell expansion in U-bottom plate upon sCD40L or ODN 2006 stimulation; conditions: 32 μM
Protocol: B cells were prepared by magnetic beads from healthy donor PBMC (n=2). Representative pictures of B cell culture in a 96 well U-bottom plate in the presence of sCD40L (T cell dependent stimulation) or ODN 2006 (TLR9 ligand)(T cell independent stimulation) at indicated concentration without or with MBK50 (16, 32 μM) or mutant peptide (32 μM). The radius of cell volume in each well roughly correlate to the total cell numbers.

[6] = tested on: human peripheral blood mononuclear cells (PBMCs); test: Viability by flow cytometry after live/dead staining, PBMC versus cancer cell lines; conditions: healthy donor PBMCs vs e.g. THP-1 and BCBL-1
Protocol: as §1, §2

[7] = tested on: THP-1; test: MTT assay, THP-1; conditions: THP-1 monocytic leukemia cell line
Protocol: as §1, §2

[8] = tested on: PEL cells; test: PEL cell killing by delivered peptide (MTS live-cell assay); conditions: peptide delivered into PEL, a MYC-dependent cancer
Protocol: FIGS. 1A-H. Viral protein sequence based cancer drug. (FIG. 1A) Discovery of hijacking transcription machinery in KSHV reactivating cells (Chen et al., J. Virol 2017). […] (FIG. 1B) Reporter assay. KSHV ORF50 overexpression inhibits MYC activation. (FIG. 1C) Chromatin immunoprecipitation with Mass Spectrometry. Proteins inducibly interact with both ORF50 and RNA polII are shown. […] (FIG. 1E) Mapping of interacting domain. GST-pull down was performed to identify NCoA2 binding domains. Purified NCoA2 was made from recombinant baculovirus infected cells and KSHV ORF50 deletion proteins were made in E. coli. Peptides are then generated as TAT-fusion for cell penetration. (FIG. 1F) ChIP-seq and RNA-seq. ChIP-seq was performed to identify NCOA2 target genes in primary effusion lymphoma cells. NCoA2 localization is highly associated with active genes and localizes with RNA pol II at enhancer regions. […] The qRT-PCR was performed with specific primers. (FIG. 1H) Gene set enrichment analyses (GSEA). RNA sequencing was performed with peptide-treated PEL cells. […] (FIG. 1I) The peptide drug. Wt peptide or mutant peptide was incubated in culture media. Forty-eight hours later, live cells were measured by applying MTS. Cell viability was compared with no-treated samples. No treated sample was set as 1.

[9] = tested on: IRF4; test: Intracellular staining of IRF4 in LPS-activated THP-1 cells; conditions: THP-1, LPS 100 ng/ml, 16 μM, 24 hours
Text: FIG. 16. Effect of MBK50 on MYC and IRF4 expression in LPS-activated monocytic leukemia cell line THP-1 cells. […] MYC and IRF4 expression levels were examined by intracellular staining of MYC and IRF4 with isotype control staining followed by flow cytometry. FIG. 16(a) A scheme of the experimental procedure. FIG. 16(b) A representative histogram overlay for the MYC expression in THP-1 cells treated with MBK50, mutant control peptide or PBS, with isotype control. The average mean fluorescent intensity (MFI) for MYC expression (n=3) for each treatment is shown in the right panel. FIG. 16(c) A representative histogram overlay for the IRF4 expression (red) in THP-1 cells treated with MBK50, mutant control peptide, or PBS, with isotype control (blue). The average MFI for IRF4 expression for each treatment is shown in the right panel.
MYC is important for monocytic cell proliferation, especially upon LPS stimulation. […] MYC and IRF4 expression levels were examined by intracellular staining of MYC and IRF4 with isotype control staining followed by flow cytometry (FIG. 16a). […] Also, the percentage of THP-1 cells with reduced IRF4 expression was increased by MBK50 treatment compared to mutant control peptide or PBS treatment.

LSSILQGLYQLDT [MBK50]
latently infected KSHV gene expression [1]: significantly down-regulated | cancer cell killing efficacy across cell lines [2]: more effective to lymphoid cell lines | activity on BCL2 negative lymphoma cell lines [3]: still works | sensitivity to cell killing [4]: sensitive | cell volume in well (correlates to total cell numbers) ([5]; donor #46): significantly reduced | cell volume in well (correlates to total cell numbers) ([5]; donor #47): less so | lower sensitivity of PBMCs to killing compared to myeloid and lymphoid cancer cell lines [6]: approximately 10 fold | sensitivity to cell killing [7]: sensitive | killing of PEL cancer cells [8]: killed the cancer cells | percentage of THP-1 cells with reduced IRF4 expression [9]: increased

— patent publication US12528840B2, “Transcription active complex targeting cancer drug from viral protein sequence” (The Regents of the University of California, priority 2020, dated 2026)
